Results reported in publication PMC6930659, “Antiprotozoal Activity of Turkish Origanum onites Essential Oil and Its Components” (Molecules, 2019).
≈ marks a conversion by molar mass, not a printed value. Like-named read-outs stand apart in the source and are kept apart here.

Assays:
[1] = tested on: L. donovani (strain MHOM/ET/67/L82) amastigotes; experiment: In vitro assay for Leishmania donovani axenic amastigotes (resazurin); type: cell-based; conditions: 72 h, read-out: IC50 Leishmania donovani
Procedure: Amastigotes of L. donovani (strain MHOM/ET/67/L82) were grown in axenic culture at 37 °C in SM medium at pH 5.4 supplemented with 10% heat-inactivated FBS under an atmosphere of 5% CO2. Culture medium (100 μL) with 10^5 amastigotes from axenic culture with or without a serial drug dilution was seeded in 96 well microtiter plates. Serial drug was prepared covering a range of dilutions from 90 to 0.123 μg/mL. After 72 h of incubation, the plates were inspected under an inverted microscope to assure growth of the controls and sterile conditions. Subsequently, 10 μL resazurin solution (12.5 mg resazurin dissolved in 100 mL double-distilled water) was added to each well and the plates were incubated for another 2 h. The plates were then read with a Spectramax Gemini XS microplate fluorometer (Molecular Devices Cooperation, Sunnyvale, CA, USA) using an excitation wavelength of 536 nm and an emission wavelength of 588 nm. Data were analyzed using the software Softmax Pro (Molecular Devices Cooperation, Sunnyvale, CA, USA). A decrease of fluorescence (=inhibition) was expressed as percentage of the fluorescence of control cultures and plotted against the drug concentrations. From the sigmoidal inhibition curves, the IC50 values were calculated. Miltefosine was used as a reference drug.

[2] = tested on: P. falciparium FCR-3 strain; set-up: method as in PMID 23082579; conditions: cited from earlier work
P. falciparum = tested on: P. falciparum; set-up: method as in PMID 22441836; conditions: cited from earlier work
[3] = tested on: promastigote forms of L. chagasi; set-up: method as in PMID 23558998, PMID 23850505; conditions: cited from earlier work
[4] = tested on: L. infantum promastigotes; set-up: method as in PMID 31151304; conditions: 24 h MTT assay; cited from earlier work
T. cruzi epimastigotes = tested on: T. cruzi epimastigotes; set-up: method as in PMID 17024354; conditions: 24 h incubation; cited from earlier work
T. cruzi trypomastigotes = tested on: T. cruzi trypomastigotes; set-up: method as in PMID 17024354; conditions: 24 h incubation; cited from earlier work
[5] = tested on: intracellular amastigotes of T.-cruzi-infected Vero cells; set-up: method as in PMID 20428679; conditions: cited from earlier work
Trypanosoma cruzi = tested on: Trypanosoma cruzi; set-up: method as in earlier work; conditions: 200 mg/kg/day, intragastric route, 22nd day post-infection; cited from earlier work
[6] = tested on: chloroquine-resistant P. falciparum strain; conditions: reported to be inactive; cited from earlier work
L. infantum = tested on: L. infantum; set-up: method as in doi:10.1016/j.indcrop.2015.09.049; conditions: cited from earlier work

Row | Compound | IC50 ([1]; axenic amastigotes, means of two determinations ± deviation) [µg/mL] | IC50 in vitro antimalarial activity [2] [µg/mL] | IC50 in vitro antimalarial activity (P. falciparum) [µg/mL] | IC50 promastigote forms of L. chagasi [3] [µg/mL] | IC50 L. infantum promastigotes [4] [µg/mL] | IC50 T. cruzi epimastigotes (T. cruzi epimastigotes) [µg/mL] | IC50 T. cruzi trypomastigotes (T. cruzi trypomastigotes) [µg/mL] | selective index ([5]; T.-cruzi-infected Vero cells) | IC50 intracellular amastigotes of T.-cruzi-infected Vero cells [5] [µg/mL] | parasitemia in T. cruzi infected albino mice (in words) (Trypanosoma cruzi) | IC50 [1] [µg/mL] | IC50 [6] [µM] | IC50 L. infantum (L. infantum) [µg/mL]
1 | Cc1ccc(C(C)C)c(O)c1 [Thymol] | 17.3 ± 4.1 (≈ 115 µM) | 10 (≈ 66.6 µM) | 4.5 (≈ 30 µM) | 9.8 | 7.2 (≈ 47.9 µM) | 62 (≈ 413 µM) | 53 (≈ 353 µM) | greater than 10 | 3.2 | significant reduction in parasitemia | – | – | –
2 | Cc1ccc(C(C)C)cc1O [Carvacrol] | – | 10 (≈ 66.6 µM) | – | 2.3 | 9.8 (≈ 65.2 µM) | – | – | – | – | – | 13.1 ± 3.9 (≈ 87.2 µM) | > 1000 | 7.35 (≈ 48.9 µM)
